Assays:
Assay in all cases: relative viability vs DMSO control (72 h) (fraction); higher = more viable cells
HT1080 = tested on: HT1080
Outline: (§1)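 Relative viability was measured with ATPLite and expressed as percent growth, averaged across up to triplicate wells. Sarcoma cell lines had been seeded in 384-well plates to reach 80–90% confluence, dosed after 24 h, and incubated 72 h at 37 °C, 5% CO2. All data were rescaled on a scale where 1 is full and 0 is none.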

MES-SA = tested on: MES-SA
Outline: as §1

SW684 = tested on: SW684
Outline: as §1

KHOS-NP = tested on: KHOS-NP
Outline: as §1

VA-ES-BJ = tested on: VA-ES-BJ
Outline: as §1

SK-LMS-1 = tested on: SK-LMS-1
Outline: as §1

SW872 = tested on: SW872
Outline: as §1

SK-ES-1 = tested on: SK-ES-1
Outline: as §1

G401 = tested on: G401
Outline: as §1

SW1353 = tested on: SW1353
Outline: as §1

RD-ES = tested on: RD-ES
Outline: as §1

RD = tested on: RD
Outline: as §1

CN1CCN(CCOc2cc(OC3CCOCC3)c3c(Nc4c(Cl)ccc5c4OCO5)ncnc3c2)CC1 [Saracatinib]
Details | relative viability
G401, 0.00017 µM | 1.03
G401, 0.00051 µM | 1.05
G401, 0.00152 µM | 1.008
G401, 0.00457 µM | 1.04
G401, 0.01372 µM | 1.05
G401, 0.04115 µM | 1.01
G401, 0.1235 µM | 0.955
G401, 0.3704 µM | 0.912
G401, 1.111 µM | 0.86
G401, 3.333 µM | 0.797
G401, 10 µM | 0.668
HT1080, 0.00017 µM | 1.05
HT1080, 0.00051 µM | 1.04
HT1080, 0.00152 µM | 1.05
HT1080, 0.00457 µM | 1.01
HT1080, 0.01372 µM | 1.022
HT1080, 0.04115 µM | 1.02
HT1080, 0.1235 µM | 1.053
HT1080, 0.3704 µM | 1.04
HT1080, 1.111 µM | 1.01
HT1080, 3.333 µM | 0.952
HT1080, 10 µM | 0.859
KHOS-NP, 0.00017 µM | 1.094
KHOS-NP, 0.00051 µM | 1.1
KHOS-NP, 0.00152 µM | 1.08
KHOS-NP, 0.00457 µM | 1.07
KHOS-NP, 0.01372 µM | 1.07
KHOS-NP, 0.04115 µM | 1.061
KHOS-NP, 0.1235 µM | 1.06
KHOS-NP, 0.3704 µM | 1.05
KHOS-NP, 1.111 µM | 0.994
KHOS-NP, 3.333 µM | 0.862
KHOS-NP, 10 µM | 0.693
MES-SA, 0.00017 µM | 0.934
MES-SA, 0.00051 µM | 0.933
MES-SA, 0.00152 µM | 0.936
MES-SA, 0.00457 µM | 0.94
MES-SA, 0.01372 µM | 0.959
MES-SA, 0.04115 µM | 0.923
MES-SA, 0.1235 µM | 0.943
MES-SA, 0.3704 µM | 0.925
MES-SA, 1.111 µM | 0.837
MES-SA, 3.333 µM | 0.692
MES-SA, 10 µM | 0.622
RD, 0.00017 µM | 1.05
RD, 0.00051 µM | 1.08
RD, 0.00152 µM | 1.096
RD, 0.00457 µM | 1.08
RD, 0.01372 µM | 1.07
RD, 0.04115 µM | 1.01
RD, 0.1235 µM | 0.948
RD, 0.3704 µM | 0.836
RD, 1.111 µM | 0.786
RD, 3.333 µM | 0.692
RD, 10 µM | 0.642
RD-ES, 0.00017 µM | 0.975
RD-ES, 0.00051 µM | 1
RD-ES, 0.00152 µM | 0.99
RD-ES, 0.00457 µM | 1.01
RD-ES, 0.01372 µM | 0.979
RD-ES, 0.04115 µM | 0.982
RD-ES, 0.1235 µM | 0.966
RD-ES, 0.3704 µM | 0.935
RD-ES, 1.111 µM | 0.898
RD-ES, 3.333 µM | 0.858
RD-ES, 10 µM | 0.735
SK-ES-1, 0.00017 µM | 0.989
SK-ES-1, 0.00051 µM | 1.05
SK-ES-1, 0.00152 µM | 1.04
SK-ES-1, 0.00457 µM | 1.01
SK-ES-1, 0.01372 µM | 1.04
SK-ES-1, 0.04115 µM | 1.01
SK-ES-1, 0.1235 µM | 0.968
SK-ES-1, 0.3704 µM | 0.951
SK-ES-1, 1.111 µM | 0.903
SK-ES-1, 3.333 µM | 0.81
SK-ES-1, 10 µM | 0.604
SK-LMS-1, 0.00017 µM | 1.03
SK-LMS-1, 0.00051 µM | 1.06
SK-LMS-1, 0.00152 µM | 1.05
SK-LMS-1, 0.00457 µM | 1.04
SK-LMS-1, 0.01372 µM | 1.02
SK-LMS-1, 0.04115 µM | 1.05
SK-LMS-1, 0.1235 µM | 0.973
SK-LMS-1, 0.3704 µM | 0.933
SK-LMS-1, 1.111 µM | 0.864
SK-LMS-1, 3.333 µM | 0.71
SK-LMS-1, 10 µM | 0.491
SW684, 0.00017 µM | 1.11
SW684, 0.00051 µM | 1.15
SW684, 0.00152 µM | 1.16
SW684, 0.00457 µM | 1.177
SW684, 0.01372 µM | 1.15
SW684, 0.04115 µM | 1.17
SW684, 0.1235 µM | 1.14
SW684, 0.3704 µM | 1.15
SW684, 1.111 µM | 1.07
SW684, 3.333 µM | 1.05
SW684, 10 µM | 1.08
SW872, 0.00017 µM | 1.07
SW872, 0.00051 µM | 1.05
SW872, 0.00152 µM | 1.06
SW872, 0.00457 µM | 1.019
SW872, 0.01372 µM | 1.05
SW872, 0.04115 µM | 0.977
SW872, 0.1235 µM | 0.9173
SW872, 0.3704 µM | 0.828
SW872, 1.111 µM | 0.693
SW872, 3.333 µM | 0.655
SW872, 10 µM | 0.59
SW1353, 0.00017 µM | 1.03
SW1353, 0.00051 µM | 0.988
SW1353, 0.00152 µM | 1.02
SW1353, 0.00457 µM | 0.996
SW1353, 0.01372 µM | 0.945
SW1353, 0.04115 µM | 0.929
SW1353, 0.1235 µM | 0.891
SW1353, 0.3704 µM | 0.843
SW1353, 1.111 µM | 0.7072
SW1353, 3.333 µM | 0.6847
SW1353, 10 µM | 0.666
VA-ES-BJ, 0.00017 µM | 1.05
VA-ES-BJ, 0.00051 µM | 1.07
VA-ES-BJ, 0.00152 µM | 1.07
VA-ES-BJ, 0.00457 µM | 1.11
VA-ES-BJ, 0.01372 µM | 1.11
VA-ES-BJ, 0.04115 µM | 1.14
VA-ES-BJ, 0.1235 µM | 1.14
VA-ES-BJ, 0.3704 µM | 1.12
VA-ES-BJ, 1.111 µM | 0.941
VA-ES-BJ, 3.333 µM | 0.805
VA-ES-BJ, 10 µM | 0.681

Source: the supplement of paper PMC10883282
